Assay [1] concerns the target Serotonin 3 (5-HT3) receptor. In words: Binding affinity for the 5-hydroxytryptamine 3 receptor was evaluated in vitro by examining its ability to displace [3H]-BRL 43694. The assay is classed as protein-complex assay.
The target of assay [2] is Serotonin 3 (5-HT3) receptor (Homo sapiens) (UniProt P46098+A5X5Y0+O95264+Q70Z44+Q8WXA8). In words: Tested for 5-hydroxytryptamine 3 receptor antagonist activity by inhibiting the 5-HT evoked Bezold-Jarisch reflex. The assay is classed as functional.

Consider `Cn1nc(C(=O)NCCc2c[nH]cn2)c2ccccc21`, for which the “Log Ki” value in assay [1] is -7.84. In addition, the -Log ED50 in assay [2] worked out at 6.9.

For the compound `COc1ccc(Cl)cc1NC(=O)NCCc1c[nH]cn1`, the “Log Ki” value in assay [1] is -8.86. This compound also showed a -Log ED50 in assay [2] of 6.8.

Regarding `COc1ccccc1NC(=O)NCCc1c[nH]cn1`, the “Log Ki” value in assay [1] is on record as -7.55. Also, the -Log ED50 in assay [2] turned out to be 7.

As to `COc1cc(F)ccc1NC(=O)NCCc1c[nH]cn1`, the “Log Ki” value in assay [1] is -7.39. Also, the -Log ED50 in assay [2] is 7.

For `CCOc1ccccc1NC(=O)NCCc1c[nH]cn1`, the “Log Ki” value in assay [1] is given as -7.35. The compound further came in with a -Log ED50 in assay [2] of 7.2.

`NCCc1c[nH]c2ccc(O)cc12`: the -Log ED50 in assay [2] turned out to be 7.4.

For the compound `COc1ccc(F)cc1NC(=O)NCCc1c[nH]cn1`, the “Log Ki” value in assay [1] is on record as -7.69. The compound further registered a -Log ED50 in assay [2] of 7.4.

Source of the values: ChEMBL document CHEMBL1127179, “Synthesis and 5-HT3 receptor agonist activity of arylureas derived from histamine” (Bioorg Med Chem Lett, 1993).
